Assay results as given in ChEMBL document CHEMBL1142776, “In vitro binding of leukotriene B4 (LTB4) to human serum albumin: evidence from spectroscopic, molecular modeling, and competitive displacement studies” (Bioorg Med Chem Lett, 2005).

Molecular target: Albumin (Homo sapiens, UniProt P02768)
Assay: In vitro Ka value against human serum albumin; N=1

Albumin, sequence (P02768 whole entry): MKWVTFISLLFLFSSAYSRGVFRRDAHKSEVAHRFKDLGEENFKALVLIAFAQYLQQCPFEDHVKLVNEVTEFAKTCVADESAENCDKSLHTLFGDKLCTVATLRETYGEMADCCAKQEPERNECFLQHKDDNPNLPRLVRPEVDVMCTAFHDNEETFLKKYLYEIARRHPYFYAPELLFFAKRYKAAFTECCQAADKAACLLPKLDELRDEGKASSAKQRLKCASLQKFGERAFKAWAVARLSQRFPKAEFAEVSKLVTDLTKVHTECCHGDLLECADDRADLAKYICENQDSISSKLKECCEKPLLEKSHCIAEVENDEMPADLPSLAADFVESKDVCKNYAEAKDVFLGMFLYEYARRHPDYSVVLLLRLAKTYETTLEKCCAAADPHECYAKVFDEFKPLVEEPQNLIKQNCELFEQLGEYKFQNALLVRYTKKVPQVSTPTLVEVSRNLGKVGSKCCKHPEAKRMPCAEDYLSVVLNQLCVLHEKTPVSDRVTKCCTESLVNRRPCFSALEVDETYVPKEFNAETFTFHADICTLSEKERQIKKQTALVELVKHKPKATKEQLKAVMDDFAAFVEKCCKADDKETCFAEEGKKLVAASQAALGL

- Ka: 67000 M⁻¹
Compound: CCCCC/C=C\C[C@@H](O)/C=C/C=C/C=C\[C@@H](O)CCCC(=O)O [LEUKOTRIENE_B4]
